Measurements published in US20260215428A1, “WEED CONTROL METHOD” (SYNGENTA CROP PROTECTION AG, priority 2023, published 2026).

Legend:
Assay type in all cases: in vivo
Eleusine indica [1] = experiment: Glasshouse post-emergence test, visual damage, Tables B1-2 and B1-3; conditions: 14 days after application
Protocol: Seeds of a variety of test species are sown in standard soil in pots. For each treatment, three replicate pots containing 10-15 plants per one-inch pot were sprayed at the 2-3 leaf stage. […] The test plants are then grown in a glasshouse under controlled conditions in a glasshouse (at 24/16° C., day/night; 14 hours light; 65% humidity) and watered twice daily. Plants were assessed for visual damage compared to the untreated control 14 days after application (0=0% damage; 100=100% damage).

Lolium multiflorum = experiment: Further glasshouse test versus other ACCase-inhibiting herbicides, Table B2-1; conditions: 21 days after application
Excerpt: (§1) Further tests were employed to test the efficacy of a compound of Formula I versus other ACCase-inhibiting herbicides. The five main targets were Lolium multiflorum, Eleusine indica, Digitaria insularis, Sorghum halepense and Echinochloa crus-galli. Collectively, the populations contained all the major target-site resistance mutations affecting ACCase herbicides. Two L. multiflorum (LM-NTSR-1 and LM-NTSR-2) and one E. crus-galli (ECG-NTSR-1) populations were characterised exclusively by non-target-site resistance (“NTSR”). The target-site resistant L. multiflorum and E. indication populations were 100% homozygous for different ACCase mutations whilst the D. insularis, S. halepense and E. crus-galli samples contained a mixture of homozygous wild and mutant individuals at different genotypic frequencies. Additional underlying NTSR cannot be ruled out in the populations characterised by target-site resistance.
(§2) Around 50 seeds of each of the 24 weed populations were sown in 12-cm pots containing a mixture of peat and compost in a 1:1 ratio. The pots were watered, fertilised and kept in controlled glasshouse conditions set at 24° C./16 hr day, 18° C. night, 65% relative humidity, and a photon flux density of approximately 250 μmol quanta m^−2 s^−1 for Lolium multiflorum. The E. indica, D. insularis, S. halepense and E. crus-galli plants were kept in a separate glasshouse bay characterised by a 17 H photoperiod of 180 μmol m^−2 s^−1 with temperatures of 25° C. day and 19° C. night and 65% relative humidity. When the plants were at the two to four-leaf stage, they were treated with the various ACCase-inhibiting herbicides at 0, 15, 30, 60, 120 and 240 g ai ha^−1 in a spray cabinet mounted with a single mobile Teejet flat fan nozzle (11002VS) calibrated to deliver 200 L ha^−1 at 200 kPa. The L. multiflorum populations were treated by a compound of Formula Ic, clodinafop-propargyl, pinoxaden, cycloxydim and clethodim and the warm season grass weeds E. indica, D. insularis, S. halepense and E. crus-galli were sprayed with a Compound Ic and the commonly employed haloxyfop-methyl and clethodim. Three replicate pots were used per population. Plants were assessed for visual damage compared to the untreated control 21 days after application (0=0% damage; 100=100% damage).

Eleusine indica [2] = experiment: Further glasshouse test versus other ACCase-inhibiting herbicides, Table B2-2; conditions: 21 days after application
Excerpt: as §1, §2

Volunteer corn = experiment: 26 field trials, control of volunteer corn, Table B1-6; conditions: 100 g/ha

SMILES: CCSC(C)CC1CC(=O)C(/C(CC)=N/OC/C=C/Cl)=C(O)C1 (stereo not shown) [Clethodim, clethodim]
- visual damage (Eleusine indica [1]; Table B1-2, biotype 87% I1781L (heterozygous), 15 g/ha): 80%
- visual damage (Eleusine indica [1]; Table B1-2, biotype 87% I1781L (heterozygous), 30 g/ha): 77%
- visual damage (Eleusine indica [1]; Table B1-2, biotype 87% I1781L (heterozygous), 60 g/ha): 100%
- visual damage (Eleusine indica [1]; Table B1-2, biotype 87% I1781L (heterozygous), 120 g/ha): 100%
- visual damage (Eleusine indica [1]; Table B1-2, biotype D2078G + W2027C (heterozygous), first entry, 15 g/ha): 50%
- visual damage (Eleusine indica [1]; Table B1-2, biotype D2078G + W2027C (heterozygous), first entry, 30 g/ha): 60%
- visual damage (Eleusine indica [1]; Table B1-2, biotype D2078G + W2027C (heterozygous), first entry, 60 g/ha): 70%
- visual damage (Eleusine indica [1]; Table B1-2, biotype D2078G + W2027C (heterozygous), first entry, 120 g/ha): 80%
- visual damage (Eleusine indica [1]; Table B1-2, biotype D2078G + W2027C (heterozygous), second entry, 15 g/ha): 63%
- visual damage (Eleusine indica [1]; Table B1-2, biotype D2078G + W2027C (heterozygous), second entry, 30 g/ha): 67%
- visual damage (Eleusine indica [1]; Table B1-2, biotype D2078G + W2027C (heterozygous), second entry, 60 g/ha): 93%
- visual damage (Eleusine indica [1]; Table B1-2, biotype D2078G + W2027C (heterozygous), second entry, 120 g/ha): 100%
- visual damage (Eleusine indica [1]; Table B1-2, biotype I2041N (heterozygous), 15 g/ha): 82%
- visual damage (Eleusine indica [1]; Table B1-2, biotype I2041N (heterozygous), 30 g/ha): 100%
- visual damage (Eleusine indica [1]; Table B1-2, biotype I2041N (heterozygous), 60 g/ha): 100%
- visual damage (Eleusine indica [1]; Table B1-2, biotype I2041N (heterozygous), 120 g/ha): 100%
- visual damage (Eleusine indica [1]; Table B1-2, biotype NTSR (non-target site resistance), 1 g/ha): 0%
- visual damage (Eleusine indica [1]; Table B1-2, biotype NTSR (non-target site resistance), 2 g/ha): 33%
- visual damage (Eleusine indica [1]; Table B1-2, biotype NTSR (non-target site resistance), 4 g/ha): 43%
- visual damage (Eleusine indica [1]; Table B1-2, biotype NTSR (non-target site resistance), 8 g/ha): 77%
- visual damage (Eleusine indica [1]; Table B1-2, biotype Sensitive, 15 g/ha): 87%
- visual damage (Eleusine indica [1]; Table B1-2, biotype Sensitive, 30 g/ha): 100%
- visual damage (Eleusine indica [1]; Table B1-2, biotype Sensitive, 60 g/ha): 100%
- visual damage (Eleusine indica [1]; Table B1-2, biotype Sensitive, 120 g/ha): 100%
- visual damage (Eleusine indica [1]; Table B1-3, Pop1 (mix of sensitive, D2078G and G2096A biotypes), 15 g/ha): 10%
- visual damage (Eleusine indica [1]; Table B1-3, Pop1 (mix of sensitive, D2078G and G2096A biotypes), 30 g/ha): 33%
- visual damage (Eleusine indica [1]; Table B1-3, Pop1 (mix of sensitive, D2078G and G2096A biotypes), 60 g/ha): 47%
- visual damage (Eleusine indica [1]; Table B1-3, Pop1 (mix of sensitive, D2078G and G2096A biotypes), 120 g/ha): 63%
- visual damage (Eleusine indica [1]; Table B1-3, Pop2 (mix of sensitive, D2078G and G2096A biotypes), 15 g/ha): 10%
- visual damage (Eleusine indica [1]; Table B1-3, Pop2 (mix of sensitive, D2078G and G2096A biotypes), 30 g/ha): 33%
- visual damage (Eleusine indica [1]; Table B1-3, Pop2 (mix of sensitive, D2078G and G2096A biotypes), 60 g/ha): 76%
- visual damage (Eleusine indica [1]; Table B1-3, Pop2 (mix of sensitive, D2078G and G2096A biotypes), 120 g/ha): 77%
- visual damage (Eleusine indica [1]; Table B1-3, biotype Sensitive, 15 g/ha): 100%
- visual damage (Eleusine indica [1]; Table B1-3, biotype Sensitive, 30 g/ha): 100%
- visual damage (Eleusine indica [1]; Table B1-3, biotype Sensitive, 60 g/ha): 100%
- visual damage (Eleusine indica [1]; Table B1-3, biotype Sensitive, 120 g/ha): 100%
- visual damage (Lolium multiflorum; biotype C2088R, 15 g/ha): 0%
- visual damage (Lolium multiflorum; biotype C2088R, 30 g/ha): 13%
- visual damage (Lolium multiflorum; biotype C2088R, 60 g/ha): 40%
- visual damage (Lolium multiflorum; biotype C2088R, 120 g/ha): 90%
- visual damage (Lolium multiflorum; biotype C2088R, 240 g/ha): 100%
- visual damage (Lolium multiflorum; biotype D2078G, 15 g/ha): 10%
- visual damage (Lolium multiflorum; biotype D2078G, 30 g/ha): 17%
- visual damage (Lolium multiflorum; biotype D2078G, 60 g/ha): 27%
- visual damage (Lolium multiflorum; biotype D2078G, 120 g/ha): 70%
- visual damage (Lolium multiflorum; biotype D2078G, 240 g/ha): 100%
- visual damage (Lolium multiflorum; biotype I1781L, 15 g/ha): 23%
- visual damage (Lolium multiflorum; biotype I1781L, 30 g/ha): 53%
- visual damage (Lolium multiflorum; biotype I1781L, 60 g/ha): 70%
- visual damage (Lolium multiflorum; biotype I1781L, 120 g/ha): 100%
- visual damage (Lolium multiflorum; biotype I1781L, 240 g/ha): 100%
- visual damage (Lolium multiflorum; biotype Sensitive, 15 g/ha): 100%
- visual damage (Lolium multiflorum; biotype Sensitive, 30 g/ha): 100%
- visual damage (Lolium multiflorum; biotype Sensitive, 60 g/ha): 100%
- visual damage (Lolium multiflorum; biotype Sensitive, 120 g/ha): 100%
- visual damage (Lolium multiflorum; biotype Sensitive, 240 g/ha): 100%
- visual damage (Lolium multiflorum; biotype W1999S, 15 g/ha): 27%
- visual damage (Lolium multiflorum; biotype W1999S, 30 g/ha): 98%
- visual damage (Lolium multiflorum; biotype W1999S, 60 g/ha): 100%
- visual damage (Lolium multiflorum; biotype W1999S, 120 g/ha): 100%
- visual damage (Lolium multiflorum; biotype W1999S, 240 g/ha): 100%
- visual damage (Lolium multiflorum; biotype W2027C, 15 g/ha): 63%
- visual damage (Lolium multiflorum; biotype W2027C, 30 g/ha): 100%
- visual damage (Lolium multiflorum; biotype W2027C, 60 g/ha): 100%
- visual damage (Lolium multiflorum; biotype W2027C, 120 g/ha): 100%
- visual damage (Lolium multiflorum; biotype W2027C, 240 g/ha): 100%
- visual damage (Lolium multiflorum; population LM-NTSR-1 (non-target-site resistance), 15 g/ha): 63%
- visual damage (Lolium multiflorum; population LM-NTSR-1 (non-target-site resistance), 30 g/ha): 97%
- visual damage (Lolium multiflorum; population LM-NTSR-1 (non-target-site resistance), 60 g/ha): 100%
- visual damage (Lolium multiflorum; population LM-NTSR-1 (non-target-site resistance), 120 g/ha): 100%
- visual damage (Lolium multiflorum; population LM-NTSR-1 (non-target-site resistance), 240 g/ha): 100%
- visual damage (Lolium multiflorum; population LM-NTSR-2 (non-target-site resistance), 15 g/ha): 3%
- visual damage (Lolium multiflorum; population LM-NTSR-2 (non-target-site resistance), 30 g/ha): 55%
- visual damage (Lolium multiflorum; population LM-NTSR-2 (non-target-site resistance), 60 g/ha): 70%
- visual damage (Lolium multiflorum; population LM-NTSR-2 (non-target-site resistance), 120 g/ha): 75%
- visual damage (Lolium multiflorum; population LM-NTSR-2 (non-target-site resistance), 240 g/ha): 95%
- visual damage (Eleusine indica [2]; biotype D2078G, 15 g/ha): 10%
- visual damage (Eleusine indica [2]; biotype D2078G, 30 g/ha): 27%
- visual damage (Eleusine indica [2]; biotype D2078G, 60 g/ha): 53%
- visual damage (Eleusine indica [2]; biotype D2078G, 120 g/ha): 100%
- visual damage (Eleusine indica [2]; biotype D2078G, 240 g/ha): 100%
- visual damage (Eleusine indica [2]; biotype G2096A, 15 g/ha): 7%
- visual damage (Eleusine indica [2]; biotype G2096A, 30 g/ha): 30%
- visual damage (Eleusine indica [2]; biotype G2096A, 60 g/ha): 78%
- visual damage (Eleusine indica [2]; biotype G2096A, 120 g/ha): 100%
- visual damage (Eleusine indica [2]; biotype G2096A, 240 g/ha): 100%
- visual damage (Eleusine indica [2]; biotype I2041N, 15 g/ha): 60%
- visual damage (Eleusine indica [2]; biotype I2041N, 30 g/ha): 27%
- visual damage (Eleusine indica [2]; biotype I2041N, 60 g/ha): 53%
- visual damage (Eleusine indica [2]; biotype I2041N, 120 g/ha): 100%
- visual damage (Eleusine indica [2]; biotype I2041N, 240 g/ha): 100%
- visual damage (Eleusine indica [2]; biotype Sensitive, 15 g/ha): 92%
- visual damage (Eleusine indica [2]; biotype Sensitive, 30 g/ha): 100%
- visual damage (Eleusine indica [2]; biotype Sensitive, 60 g/ha): 100%
- visual damage (Eleusine indica [2]; biotype Sensitive, 120 g/ha): 100%
- visual damage (Eleusine indica [2]; biotype Sensitive, 240 g/ha): 100%
- visual damage (Eleusine indica [2]; biotype W2027C, 15 g/ha): 93%
- visual damage (Eleusine indica [2]; biotype W2027C, 30 g/ha): 100%
- visual damage (Eleusine indica [2]; biotype W2027C, 60 g/ha): 100%
- visual damage (Eleusine indica [2]; biotype W2027C, 120 g/ha): 100%
- visual damage (Eleusine indica [2]; biotype W2027C, 240 g/ha): 100%
- Control (14d) (Volunteer corn; 14d): 90%
- Control (28d) (Volunteer corn; 28d): 96%
